Laboratory results reported in patent US20040006328A1, “Targeting of sebaceous follicles as a treatment of sebaceous gland disorders” (priority 1999, published 2004).

Key:
[1] = Methylene blue staining of sebaceous glands in ex vivo tissue (topical application, frozen sections, light microscopy); format: in vitro ADME, human
Method: (§1) Freshly excised human skin from a face-lift procedure was provided by a plastic surgeon. The skin originated from the periauricular area and the anterior hairline of a middle-aged fair-skinned person. The samples were stored at 4 ? C. overnight. On the day of experiment, the tissue was shaved with a razor and defatted by rubbing the surface with alcohol swabs for 1 minute. After cutting the skin in smaller pieces, the tissue was placed on saline-soaked gauzes. Methylene blue, a cationic hydrophilic dye was dissolved in distilled water, alcohol, and propylene glycol at a concentration of 5% and applied on the surface of the skin in a thick layer at 31 ? C. […] 5 mm-punch biopsies were performed and the samples were processed frozen sections.
There was minimal non-specific staining of the interstitial dermis.
as §1, with “5% and was mixed in a commercially available aqueous-based lotion (50 mL of dissolved dye in 500 mg of lotion) and applied on” for “5% and applied on”
Methylene blue dye was also administered into the sebaceous glands via Retina Gel® (Ortho Pharmaceuticals) as the carrier vehicle. Typically, a sufficient amount of methylene blue (50 mL of dissolved dye in 500 mg of gel) was combined with hydroxypropyl cellulose, butylated hydroxytoluene and alcohol and applied to the epidermis.

[2] = Localization of applied dyes in in-vitro human sebaceous skin samples by frozen sectioning and light microscopy; format: in vitro ADME
From the text: Fresh, in-vitro human sebaceous skin samples were used. Dye solutions and particle suspensions were applied to the samples at different concentration and in various vehicles, followed by localization of the dye by frozen sectioning and light microscopy. […] Apparently, almost any dye or suspension can be delivered to the upper infundibulum by direct solvent flow into the pore. Optimization of the concentration and solvent for MB and ICG can be determined by one skilled in the art. […] Physical means of increasing dye uptake into the infundibulum, including ultrasonication with a tissue dismembranator at low intensity, and a simple pressure-applicator intended to open the surface pores while providing a pressure gradient in favor of dye uptake is possible.

**Q.** For `CN(C)c1ccc2nc3ccc(=[N+](C)C)cc-3sc2c1` [Methylene blue], which “non-specific staining of the interstitial dermis (FIG. 9)” value [1] is on record?
**A.** Its value is “minimal”.

**Q.** And the “non-specific staining of the interstitial dermis (FIG. 10)” value [1]?
**A.** Its value is “minimal”.

**Q.** What about the “surface staining after removal of excess dye” value ([1]; 5% dye solution mixed in aqueous-based lotion (50 mL of dissolved dye in 500 mg of lotion), 31 C, 1 hour) of the same molecule?
**A.** The value was “lightly stained epidermis with accentuation of the staining in the follicular pores”.

**Q.** And the “staining in histologic sections (light microscopy, FIG. 10)” value ([1]; 5% dye solution mixed in aqueous-based lotion, 31 C, 1 hour, frozen sections)?
**A.** Its value is “dense blue staining of the epidermis and of some sebaceous glands and entire hair follicles”.

**Q.** And the “staining in histologic sections (light microscopy, FIG. 9)” value ([1]; 5% in distilled water, alcohol and propylene glycol, 31 C, 1 hour, 5 mm punch biopsies, frozen sections)?
**A.** The value was “dense blue staining of the epidermis and of some sebaceous glands and entire hair follicles”.

**Q.** What about the “surface staining after removal of excess dye” value ([1]; 5% in distilled water, alcohol and propylene glycol, thick layer at 31 C, 1 hour) of the same molecule?
**A.** The value was “lightly stained epidermis with accentuation of the staining in the follicular pores”.

**Q.** What about the “penetration into the sebaceous glands (light microscopy)” value ([1]; Retina Gel as carrier vehicle (50 mL of dissolved dye in 500 mg of gel)) of the same molecule?
**A.** The value was “Penetration of the methylene blue dye into the sebaceous glands”.

**Q.** And the “increase of rate of uptake by iontophoresis” value [2]?
**A.** Its value is “at least one order of magnitude”.

**Q.** What about the “entry of dye into the infundibulum” value ([2]; fresh in-vitro human sebaceous skin, dye solutions at different concentrations and in various vehicles) of the same molecule?
**A.** The value was “rapidly enter the infundibulum”.

**Q.** And the “staining of the sebaceous glands” value ([2]; fresh in-vitro human sebaceous skin, requiring several hours)?
**A.** Its value is “deeply and selectively stain the sebaceous glands”.
